Assay results from US9890166B2, “Imidazopyrrolidine derivatives and their use in the treatment of disease” (NOVARTIS AG, priority 2013, dated 2018).

Tests used:
K-562 cells = assay: Cell growth inhibition assay (CellTiter-Glo), K-562; settings: for GI50: Homo sapiens, K562, read-out: K-562 GI50; for K-562 TGI: K-562 cells, total growth inhibition, CellTiter-Glo;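 as to all read-outs here: cellular ATP measured by luminescence after 4 days of exposure, 3-fold dilution series from 10 µM, DMSO vehicle-treated cells define 100%, cell-free medium wells −100%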
BRD2 (His-Brd2(60-472)) = BRD2 (His-Brd2(60-472)) (Homo sapiens (Human), UniProt P25440); assay: TR-FRET in-vitro binding assay for BRD2; settings: single determination or n ≧ 2 independent determinations, read-out: Biochemical IC50 BRD2
Chain of BRD2 (His-Brd2(60-472)) (P25440 60-472): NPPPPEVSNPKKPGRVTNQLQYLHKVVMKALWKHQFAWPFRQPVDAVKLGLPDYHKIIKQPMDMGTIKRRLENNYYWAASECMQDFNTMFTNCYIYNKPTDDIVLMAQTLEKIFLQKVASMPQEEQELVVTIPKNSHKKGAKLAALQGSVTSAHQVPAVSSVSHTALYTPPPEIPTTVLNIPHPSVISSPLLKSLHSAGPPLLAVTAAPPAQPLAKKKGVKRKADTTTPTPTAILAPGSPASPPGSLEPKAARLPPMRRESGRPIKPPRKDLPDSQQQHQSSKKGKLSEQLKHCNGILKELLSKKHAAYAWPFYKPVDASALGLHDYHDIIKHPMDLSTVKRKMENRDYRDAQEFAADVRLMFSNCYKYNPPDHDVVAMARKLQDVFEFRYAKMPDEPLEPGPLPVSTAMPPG
Procedure, shortened: (§1)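 In this TR-FRET format, each compound was tested as an 8-point dilution series, single point per concentration, dispensed from 90% DMSO solution. Incubation lasted 35 minutes at 30° C.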

THP-1 cells = assay: Cell growth inhibition assay (CellTiter-Glo), THP-1; settings: for GI50: Homo sapiens, THP-1, read-out: THP-1 GI50; for THP-1 TGI: THP-1 cells, total growth inhibition, CellTiter-Glo;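 as to all read-outs here: viability read as cellular ATP luminescence after 4 days, 3-fold dilution series from 10 µM, DMSO vehicle-treated cells taken as 100%, cell-free medium wells as −100%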
BRD4 (His-Brd4(44-477)) = BRD4 (His-Brd4(44-477)) (Homo sapiens (Human), UniProt O60885); assay: TR-FRET in-vitro binding assay for BRD4; settings: single determination or n ≧ 2 independent determinations, read-out: Biochemical IC50 BRD4
Procedure, shortened: as §1

MV-4-11 cells = assay: Cell growth inhibition assay (CellTiter-Glo), MV-4-11; settings: for GI50: Homo sapiens, MV4-11, read-out: MV-4-11 GI50; for MV-4-11 TGI: MV-4-11 cells, total growth inhibition, CellTiter-Glo;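 as to all read-outs here: cellular ATP luminescence after 4 days, 3-fold dilution series from 10 µM top dose, vehicle (0.1% DMSO) set to 100%, cell-free medium set to −100%, day 0 corrected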
[1] = molecular target: CREBBP bromodomain (His-CREBBP(1081-1197)) (Homo sapiens (Human), UniProt Q92793); assay: AlphaScreen in-vitro binding assay for CREBBP; settings: single determination or n ≧ 2 independent determinations, read-out: Biochemical IC50 CREBBP
Chain of CREBBP bromodomain (His-CREBBP(1081-1197)) (Q92793 1081-1197): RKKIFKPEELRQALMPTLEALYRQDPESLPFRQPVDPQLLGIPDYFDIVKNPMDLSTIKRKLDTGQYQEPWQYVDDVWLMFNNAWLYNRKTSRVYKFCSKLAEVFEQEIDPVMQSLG
Procedure, shortened: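 Detection used nickel-chelate acceptor plus streptavidin donor AlphaScreen beads, 1 h room temperature. Percent inhibition fitted by non-linear regression to IC50.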

BRD3 (His-Brd3(20-477)) = BRD3 (His-Brd3(20-477)) (Homo sapiens (Human), UniProt Q15059); assay: TR-FRET in-vitro binding assay for BRD3; settings: single determination or n ≧ 2 independent determinations, read-out: Biochemical IC50 BRD3
Chain of BRD3 (His-Brd3(20-477)) (Q15059 20-477): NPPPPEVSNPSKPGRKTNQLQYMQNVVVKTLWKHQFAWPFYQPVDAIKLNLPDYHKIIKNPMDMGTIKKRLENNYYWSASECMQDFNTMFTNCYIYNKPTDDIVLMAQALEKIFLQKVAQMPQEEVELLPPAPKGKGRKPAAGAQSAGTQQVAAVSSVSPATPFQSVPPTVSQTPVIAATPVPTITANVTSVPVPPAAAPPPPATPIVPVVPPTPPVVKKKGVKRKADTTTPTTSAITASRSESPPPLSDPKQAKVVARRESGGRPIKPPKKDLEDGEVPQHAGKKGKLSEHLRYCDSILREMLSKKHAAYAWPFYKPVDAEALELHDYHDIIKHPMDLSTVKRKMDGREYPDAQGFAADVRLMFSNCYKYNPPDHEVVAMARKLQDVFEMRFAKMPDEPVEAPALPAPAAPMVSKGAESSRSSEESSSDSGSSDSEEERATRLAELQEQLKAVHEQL
Procedure, shortened: as §1

GI50 (K-562 cells) | IC50 (BRD2 (His-Brd2(60-472))) | GI50 (THP-1 cells) | IC50 (BRD4 (His-Brd4(44-477))) | GI50 (MV-4-11 cells) | IC50 [1] | IC50 (BRD3 (His-Brd3(20-477))) | SMILES | K-562 TGI (K-562 cells) | THP-1 TGI (THP-1 cells) | MV-4-11 TGI (MV-4-11 cells)
3.63 µM | 0.028 µM | 0.472 µM | 0.015 µM | 0.126 µM | 2.9 µM | 0.023 µM | Cc1cc(N2C(=O)c3nc(C4CCN(C)CC4)n(C(C)C)c3C2c2ccc(Cl)cc2)cn2c(C)nnc12 (stereo not shown) [Example 98, 6-(4-chlorophenyl)-5-(3,8-dimethyl-[1,2,4]triazolo[4,3-a]pyridin-6-yl)-1-isopropyl-2-(1-methylpiperidin-4-yl)-5,6-dihydropyrrolo[3,4-d]imidazol-4(1H)-one] | >10 µM | 2.14 µM | 0.282 µM
0.117 µM | 0.048 µM | 0.041 µM | 0.03 µM | 0.0178 µM | 5.7 µM | 0.034 µM | Cc1cc(N2C(=O)c3nc(C)n(C(C)C)c3[C@H]2c2ccc(Cl)cc2)cn2c(C)nnc12 [Example 59, (R)-6-(4-chlorophenyl)-5-(3,8-dimethyl-[1,2,4]triazolo[4,3-a]pyridin-6-yl)-1-isopropyl-2-methyl-5,6-dihydropyrrolo[3,4-d]imidazol-4(1H)-one] | >10 µM | 0.114 µM | 0.0349 µM
0.0901 µM | 0.033 µM | 0.0402 µM | 0.014 µM | 0.0186 µM | 8.9 µM | 0.02 µM | COc1ncccc1-c1nc2c(n1C(C)C)[C@@H](c1ccc(Cl)cc1)N(c1cc(OC)c3nnn(C)c3c1)C2=O [Example 111] | >10 µM | 0.0921 µM | 0.04465 µM
0.0195 µM | < 0.011 µM | 0.00382 µM | < 0.011 µM | 0.00342 µM | 1.5 µM | < 0.011 µM | Cc1cc(N2C(=O)c3nc(C4=CCOCC4)n(C(C)C)c3[C@H]2c2ccc(Cl)cc2)cc2c1nnn2C [Example 81, (R)-6-(4-chlorophenyl)-2-(3,6-dihydro-2H-pyran-4-yl)-5-(1,4-dimethyl-1H-benzo[d][1,2,3]triazol-6-yl)-1-isopropyl-5,6-dihydropyrrolo[3,4-d]imidazol-4(1H)-one] | >10 µM | 0.0107 µM | 0.005405 µM
0.268 µM | 0.087 µM | 0.118 µM | 0.038 µM | 0.0777 µM | 12.9 µM | 0.1 µM | COc1ccc(-c2nc3c(n2C(C)C)[C@@H](c2ccc(Cl)cc2)N(c2cc(OC)c4nnn(C)c4c2)C3=O)cn1 [Example 114, (R)-6-(4-chlorophenyl)-1-isopropyl-5-(4-methoxy-1-methyl-1H-benzo[d][1,2,3]triazol-6-yl)-2-(6-methoxypyridin-3-yl)-5,6-dihydropyrrolo[3,4-d]imidazol-4(1H)-one] | >10 µM | 0.3005 µM | 0.1585 µM
0.351 µM | 0.041 µM | 0.0565 µM | 0.027 µM | 0.0105 µM | 3.05 µM | 0.033 µM | Cc1cc(N2C(=O)c3nc(C4=CCOC4)n(C(C)C)c3[C@H]2c2ccc(Cl)cc2)cn2c(C)nnc12 [Example 48, (R)-6-(4-chlorophenyl)-2-(2,5-dihydrofuran-3-yl)-5-(3,8-dimethyl-[1,2,4]triazolo[4,3-a]pyridin-6-yl)-1-isopropyl-5,6-dihydropyrrolo[3,4-d]imidazol-4(1H)-one] | >10 µM | 0.109 µM | 0.0245 µM
0.366 µM | 0.078 µM | 0.0995 µM | 0.055 µM | 0.0238 µM | 10.3 µM | 0.038 µM | Cc1cc(N2C(=O)c3nc(C)n(C(C)C)c3C2c2ccc(Cl)cc2)cn2c(C)nnc12 (stereo not shown) [Example 58, 6-(4-chlorophenyl)-5-(3,8-dimethyl-[1,2,4]triazolo[4,3-a]pyridin-6-yl)-1-isopropyl-2-methyl-5,6-dihydropyrrolo[3,4-d]imidazol-4(1H)-one] | >10 µM | 0.2075 µM | 0.04875 µM
